Among the data in patent US20210198277A1, “AMINE-SUBSTITUTED ARYL OR HETEROARYL COMPOUNDS” (Epizyme, Inc., priority 2016, published 2021) are IC50 values, retold here.

Assay [1] deals with T1, EHMT1 (Homo sapiens, UniProt Q9H9B1).
T1 sequence (Q9H9B1 1-1298): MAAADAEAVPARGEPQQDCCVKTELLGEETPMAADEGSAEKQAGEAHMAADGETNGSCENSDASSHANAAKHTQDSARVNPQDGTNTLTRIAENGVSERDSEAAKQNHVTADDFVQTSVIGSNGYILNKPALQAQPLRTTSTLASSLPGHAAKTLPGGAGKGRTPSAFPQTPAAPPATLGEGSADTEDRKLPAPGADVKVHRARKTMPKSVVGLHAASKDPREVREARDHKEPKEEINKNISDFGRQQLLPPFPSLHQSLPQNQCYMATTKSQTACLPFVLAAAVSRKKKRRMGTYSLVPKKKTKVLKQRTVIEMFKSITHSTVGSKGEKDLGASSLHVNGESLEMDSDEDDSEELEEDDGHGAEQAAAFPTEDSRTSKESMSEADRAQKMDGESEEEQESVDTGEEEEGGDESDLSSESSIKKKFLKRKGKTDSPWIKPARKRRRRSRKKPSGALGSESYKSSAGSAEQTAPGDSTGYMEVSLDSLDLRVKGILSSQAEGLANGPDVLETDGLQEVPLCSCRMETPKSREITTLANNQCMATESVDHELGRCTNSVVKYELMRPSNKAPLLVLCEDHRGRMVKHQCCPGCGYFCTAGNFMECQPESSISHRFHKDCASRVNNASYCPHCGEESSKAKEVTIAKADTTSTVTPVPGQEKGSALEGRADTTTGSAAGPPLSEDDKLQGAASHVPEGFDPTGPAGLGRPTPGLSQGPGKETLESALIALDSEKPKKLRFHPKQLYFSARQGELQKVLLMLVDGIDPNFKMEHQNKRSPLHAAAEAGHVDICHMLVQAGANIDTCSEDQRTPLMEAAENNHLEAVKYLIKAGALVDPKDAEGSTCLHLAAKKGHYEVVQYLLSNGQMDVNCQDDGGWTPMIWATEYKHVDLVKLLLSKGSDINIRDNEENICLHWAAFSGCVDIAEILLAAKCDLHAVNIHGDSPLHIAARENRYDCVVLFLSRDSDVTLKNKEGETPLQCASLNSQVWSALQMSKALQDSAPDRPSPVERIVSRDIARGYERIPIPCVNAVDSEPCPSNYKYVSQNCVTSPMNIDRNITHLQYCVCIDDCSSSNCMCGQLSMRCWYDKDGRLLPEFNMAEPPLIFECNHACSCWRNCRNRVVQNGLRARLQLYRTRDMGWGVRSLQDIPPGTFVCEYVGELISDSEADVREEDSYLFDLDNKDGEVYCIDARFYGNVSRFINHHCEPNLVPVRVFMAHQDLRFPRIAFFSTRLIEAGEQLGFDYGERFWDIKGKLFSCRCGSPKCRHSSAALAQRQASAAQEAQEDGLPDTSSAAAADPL
Description: EHMT1 enzyme assay on peptide substrate (EHMT1 PEP). The format is biochemical. The conditions noted are these: Table VII; read-out: EHMT1 PEP IC50.

The target in assay [2] is T2, human EHMT2 913-1193 (Homo sapiens, UniProt Q96KQ7).
T2 construct: recombinant purified human EHMT2 913-1193, Viva; purchased Viva
T2 sequence (Q96KQ7 913-1193): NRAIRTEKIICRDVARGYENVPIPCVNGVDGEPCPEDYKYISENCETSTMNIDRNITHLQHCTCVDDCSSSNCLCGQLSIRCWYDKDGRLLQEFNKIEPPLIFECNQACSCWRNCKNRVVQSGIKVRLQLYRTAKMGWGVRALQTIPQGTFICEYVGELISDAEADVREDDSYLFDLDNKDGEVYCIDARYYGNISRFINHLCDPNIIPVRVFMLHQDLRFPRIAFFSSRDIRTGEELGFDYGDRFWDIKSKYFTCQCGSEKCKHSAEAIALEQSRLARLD
The experiment in a line: EHMT2 enzyme assay on histone peptide substrate (EHMT2 PEP). The format is biochemical. The conditions noted are these: Table VII; read-out: EHMT2 PEP IC50. In short, it runs like this: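 Compounds (10-point, 3-fold dilutions, top 50 μM final, 2% DMSO) preincubated 30 min with 0.031 nM EHMT2 in 20 mM Bicine pH 7.5, 0.002% Tween 20, 0.005% gelatin, 1 mM TCEP. Biotinylated histone peptide methylated with ^3H-SAM 60 min at room temperature. Quenched with unlabeled SAM; product captured on streptavidin Flashplate, scintillation counted.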

A value given as a limit tells only on which side of the number the result lay.

On to `CNc1ccnc(Nc2ccc(OC)c(OC[C@@H](O)CN3CCC3)c2)n1` [Compound 1046], for which the IC50 in assay [1] and in assay [2] was 1 to 10 µM throughout.

With `CNc1cc(C2CCOCC2)c2cc(OC)c(OC[C@H](O)CN3CCC3)cc2n1` [Compound 1108], the IC50 in assay [1] and in assay [2] was less than 0.1 µM in each case.

Regarding `CNc1cc(C)nc(Nc2ccc(OC)c(CNCCNC3CCC3)c2)n1` [Compound 1109], the IC50 (in general, the point on the concentration scale where inhibition reaches its midpoint) was in the range of 0.1 to 1 µM in assay [1] and 1 to 10 µM in assay [2].

Take `CNc1cc(C)nc(Nc2cnc(OC)c(CNCCN3CCC3)c2)n1` [Compound 1110]: the values for the IC50 in assay [1] and in assay [2] were less than 0.1 µM and 0.1 to 1 µM, respectively.

For the compound `CNc1cc(C2CCOCC2)c2cc(OC)c(CNCCN3CCCC3)cc2n1` [Compound 1111], the IC50 in assay [1] and in assay [2] was less than 0.1 µM in each case.

With `CNc1cc(C)nc(Nc2ccc(OC)c(OC[C@H](O)CN(C)C)c2)n1` [Compound 1112], the IC50 in assay [1] was less than 0.1 µM; in assay [2], 0.1 to 1 µM.

`CCN(C)C[C@@H](O)COc1cc(Nc2nc(C)cc(NC)n2)ccc1OC` [Compound 1113]: the 50% inhibitory concentration (IC50) in assay [1] is less than 0.1 µM; in assay [2], 0.1 to 1 µM.

With `CNc1cc(C)nc(Nc2ccc(C)c(C(=O)NCc3ccon3)c2)n1` [Compound 1114], the IC50 in assay [1] and in assay [2] was greater than 10 µM in each case.
